This passage reports IC50 results from patent publication US20220251109A1, “OXAAZAQUINAZOLINE-7(8H)-KETONE COMPOUND, PREPARATION METHOD THEREFOR AND PHARMACEUTICAL APPLICATION THEREOF” (GENFLEET THERAPEUTICS (SHANGHAI) INC., priority 2019, published 2022).

What all share (format): cell-based, human
Experiment [1] relates to p-ERK in MIA PaCa2 cells (Kras G12C mutation). In words: Cell p-ERK detection experiment (HTRF) in MIA PaCa2 cells. The following applies: compound 2 hours. The method, then:
MIA PaCa2 was a human pancreatic cancer cell line with Kras G12C mutation, cultured in 10% FBS+2.5% Horse serum DMEM medium. The cells in the logarithmic growth phase were taken, digested with enzyme EDTA, collected, counted and 2.5E4 cells were seeded in a 96-well cell culture plate, cultured overnight. DMSO was used to prepare 1000× compound 3.16-fold gradient concentration stock solution, and medium was used to dilute 200-fold to 5× compound stock solution. On the second day after cell seeding, 5× compound stock solution was added to each cell culture well, the final concentration was 1×, and DMSO content was 0.1%. DMSO was used as an experimental control (control). After the compound was added and cultured for two hours, the remaining medium was removed. 50 ul cell lysis buffer was added to each well, mixed and incubated for 30 minutes, then 16 ul of the mixture was transferred to a 96-well plate with a non-transparent white bottom, and 16 ul cell lysis buffer was added to blank wells. After the completion of the transfer, 4 ul p-ERK HTRF antibody mixture was added to each well, incubated for 4 hours and the fluorescence value was read. The compound inhibition rate IR (%)=(RLU control-RLU compound)/(RLU control-RLU blank)×100% was calculated, Prism 8 four-parameter method was used to fit the compound's gradient dilution concentration and the corresponding cell proliferation inhibition rate, and the IC50 value was calculate.
In general terms: In TR-FRET formats the signal depends on donor and acceptor labels being close together.

In experiment [2] the test system is A549 cells (Kras G12S mutation). In words: Cell proliferation inhibition experiment, 3D model, CellTiter-Glo (A549). Particulars: A549, 3D sphere plate, 5 days, 2% FBS. The essentials:
(§1)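 Luminescent ATP read-out (CellTiter-Glo) after 5-day compound treatment gave % inhibition relative to DMSO control and medium blank, fitted four-parameter for IC50. Spheroids were formed overnight in 2% FBS medium from 800 H358 or 400 A549 cells per well; dilutions were 3.16-fold, final DMSO 0.1%.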

In experiment [3] the test system is NCI-H358 cells (Kras G12C mutation). The experiment can be described thus: Cell proliferation inhibition experiment, 3D model, CellTiter-Glo (NCI-H358). The following applies: NCI-H358, 3D sphere plate, 5 days, 2% FBS. The method, boiled down: as §1

Turning to `C=CC(=O)N1CCN2c3nc(=O)n(-c4c(C)ccnc4C(C)C)c4nc(-c5cccc(C(F)(F)F)c5F)c(Cl)c(c34)OC[C@@H]2C1` (single isomer, unassigned) [Compound Z57-2], the IC50 in experiment [1] (Homo sapiens, MIA PaCa-2, 2 h) was 27 nM; in experiment [2], more than 10000 nM; in experiment [3], 3 nM.

As for `C=CC(=O)N1CCN2c3nc(=O)n(-c4c(C)ccnc4C(C)C)c4nc(-c5c(F)cccc5OC)c(Cl)c(c34)OC[C@H]2C1` (single isomer, unassigned) [Compound Z83-2], the IC50 turned out to be 67 nM in experiment [1], 9770 nM in experiment [2] and 15 nM in experiment [3].

Consider `C=CC(=O)N1CCN2c3nc(=O)n(-c4c(C)ccnc4C(C)C)c4nc(-c5c(F)cccc5OC)c(Cl)c(c34)OC[C@H]2C1` (single isomer, unassigned) [Compound Z83-1], for which the IC50 came out at 9 nM in experiment [1]; 12100 nM in experiment [2] (Homo sapiens, A549, 120 h); 1 nM in experiment [3].

Regarding `C=CC(=O)N1CCN2c3nc(=O)n(-c4c(C)ccnc4C(C)C)c4nc(-c5cccc(Cl)c5F)c(Cl)c(c34)OC[C@@H]2C1` (single isomer, unassigned) [Compound Z82-1], the IC50 stood at 407 nM in experiment [1], 3560 nM in experiment [2] and 23 nM in experiment [3].

Turning to `C=CC(=O)N1CCN2c3nc(=O)n(-c4c(C)ccnc4C(C)C)c4nc(-c5cc(O)ccc5F)c(Cl)c(c34)OC[C@H]2C1` [Compound Z118], the IC50 was 166 nM in experiment [1] (Homo sapiens, MIA PaCa-2, 2 h); more than 30000 nM in experiment [2] (Homo sapiens, A549, 120 h); 19 nM in experiment [3] (Homo sapiens, NCI-H358, 120 h).

As for `C=CC(=O)N1CCN2c3nc(=O)n(-c4nccnc4C(C)C)c4nc(-c5c(O)cccc5F)c(Cl)c(c34)OC[C@H]2C1` (atropisomer, axis not shown) [Compound Z105-1], the IC50 in experiment [1] was 395 nM; in experiment [2] (Homo sapiens, A549, 120 h), more than 30000 nM; in experiment [3], 38 nM.

As to `C=CC(=O)N1CCN2c3nc(=O)n(-c4c(OC)ncnc4C(C)C)c4nc(-c5c(O)cccc5F)c(F)c(c34)OC[C@H]2C1` (single isomer, unassigned) [Compound Z111-1], the IC50 was 186 nM in experiment [1] (Homo sapiens, MIA PaCa-2, 2 h); more than 30000 nM in experiment [2] (Homo sapiens, A549, 120 h); 34 nM in experiment [3] (Homo sapiens, NCI-H358, 120 h).

Turning to `C=CC(=O)N1CCN2c3nc(=O)n(-c4c(C)ccnc4C(C)C)c4nc(-c5cccc(Cl)c5F)c(Cl)c(c34)OC[C@@H]2C1` (single isomer, unassigned) [Compound Z82-2], the half-inhibitory concentration (IC50) came to 23 nM in experiment [1], 8300 nM in experiment [2] and 2 nM in experiment [3].

Turning to `C=CC(=O)N1CCN2c3nc(=O)n(-c4c(C)ccnc4C(C)C)c4nc(-c5cccc(Cl)c5F)c(Cl)c(c34)OC[C@H]2C1` [Compound Z91], the concentration for half-maximal inhibition (IC50) in experiment [1] is 16 nM; in experiment [2], 4220 nM; in experiment [3], 2 nM.

Take `C=CC(=O)N1CCN2c3nc(=O)n(-c4c(C)ccnc4C(C)C)c4nc(-c5c(O)cccc5F)c(C)c(c34)OC[C@H]2C1` [Compound Z72]: the IC50 in experiment [1] (Homo sapiens, MIA PaCa-2, 2 h) is 63 nM; in experiment [2] (Homo sapiens, A549, 120 h) it was more than 10000 nM; in experiment [3] (Homo sapiens, NCI-H358, 120 h) it was 5 nM.

As for `C=CC(=O)N1CCN2c3nc(=O)n(-c4c(C)ccnc4C(C)C)c4nc(-c5c(F)cccc5OC)c(Cl)c(c34)OC[C@H]2C1` [Compound Z75], the IC50 in experiment [1] (Homo sapiens, MIA PaCa-2, 2 h) is 112 nM; in experiment [2] (Homo sapiens, A549, 120 h), more than 10000 nM; in experiment [3] (Homo sapiens, NCI-H358, 120 h), 2 nM.

Regarding `C=CC(=O)N1CCN2c3nc(=O)n(-c4c(C)ccnc4C(C)C)c4nc(-c5ccccc5Cl)c(Cl)c(c34)OC[C@H]2C1` [Compound Z90], the IC50 in experiment [1] (Homo sapiens, MIA PaCa-2, 2 h) was 19 nM; in experiment [2] (Homo sapiens, A549, 120 h), 7780 nM; in experiment [3] (Homo sapiens, NCI-H358, 120 h) it was 4 nM.

On to `C=CC(=O)N1CCN2c3nc(=O)n(-c4c(C)ncnc4C(C)C)c4nc(-c5cccc(F)c5F)c(Cl)c(c34)OC[C@H]2C1` (single isomer, unassigned) [Compound Z96-1], for which the IC50 was 195 nM in experiment [1]; more than 10000 nM in experiment [2] (Homo sapiens, A549, 120 h); 59 nM in experiment [3].

Take `C=CC(=O)N1CCN2c3nc(=O)n(-c4c(C)ccnc4C(C)C)c4nc(-c5ccc(F)cc5F)c(Cl)c(c34)OC[C@H]2C1` (single isomer, unassigned) [Compound Z76-1]: the concentration for half-maximal inhibition (IC50) was 109 nM in experiment [1]; more than 10000 nM in experiment [2] (Homo sapiens, A549, 120 h); 40 nM in experiment [3].

As for `C=CC(=O)N1CCN2c3nc(=O)n(-c4c(C)ccnc4C(C)C)c4nc(-c5c(O)cccc5F)c(Cl)c(c34)OC[C@@H]2C1` (single isomer, unassigned) [Compound Z24-1], the concentration for half-maximal inhibition (IC50) in experiment [1] is 53 nM; in experiment [2], more than 10000 nM; in experiment [3] it was 16 nM.

Turning to `C=CC(=O)N1CCN2c3nc(=O)n(-c4c(C)ccnc4C(C)C)c4nc(-c5cccc(F)c5F)c(Cl)c(c34)OC[C@H]2C1` (single isomer, unassigned) [Compound Z77-1], the IC50 was 58 nM in experiment [1]; more than 10000 nM in experiment [2] (Homo sapiens, A549, 120 h); 26 nM in experiment [3].

As for `C=CC(=O)N1CCN2c3nc(=O)n(-c4c(C)ccnc4C(C)C)c4nc(-c5c(F)cccc5F)c(Cl)c(c34)OC[C@H]2C1` [Compound Z80], the 50% inhibitory concentration (IC50) is 19 nM in experiment [1] (Homo sapiens, MIA PaCa-2, 2 h); more than 10000 nM in experiment [2] (Homo sapiens, A549, 120 h); 3 nM in experiment [3] (Homo sapiens, NCI-H358, 120 h).

For the compound `C=CC(=O)N1CCN2c3nc(=O)n(-c4c(C)ccnc4C(C)C)c4nc(-c5cccc(Cl)c5F)c(Cl)c(c34)OC[C@H]2C1` (atropisomer, axis not shown) [Compound Z91-1], the IC50 was 93 nM in experiment [1], 10100 nM in experiment [2] and 30 nM in experiment [3].

Consider `C=CC(=O)N1CCN2c3nc(=O)n(-c4c(C)ncnc4C(C)C)c4nc(-c5ccccc5F)c(Cl)c(c34)OC[C@H]2C1` (single isomer, unassigned) [Compound Z95-1], for which the IC50 in experiment [1] was 248 nM; in experiment [2] (Homo sapiens, A549, 120 h), 11300 nM; in experiment [3] it was 52 nM.

Regarding `C=CC(=O)N1CCN2c3nc(=O)n(-c4c(C)ncnc4C(C)C)c4nc(-c5c(O)cccc5F)c(Cl)c(c34)OC[C@H]2C1` (single isomer, unassigned) [Compound Z88-1], the concentration for half-maximal inhibition (IC50) in experiment [1] was 356 nM; in experiment [2] (Homo sapiens, A549, 120 h) it was more than 10000 nM; in experiment [3] it was 100 nM.

Consider `C=CC(=O)N1CCN2c3nc(=O)n(-c4nccnc4C(C)C)c4nc(-c5c(O)cccc5F)c(F)c(c34)OC[C@H]2C1` (atropisomer, axis not shown) [Compound Z107-1], for which the IC50 was 226 nM in experiment [1]; more than 30000 nM in experiment [2] (Homo sapiens, A549, 120 h); 19 nM in experiment [3].

Regarding `C=CC(=O)N1CCN2c3nc(=O)n(-c4c(C)ncnc4C(C)C)c4nc(-c5c(O)cccc5F)c(Cl)c(c34)OC[C@H]2C1` [Compound Z88], the IC50 in experiment [1] (Homo sapiens, MIA PaCa-2, 2 h) was 86 nM; in experiment [2] (Homo sapiens, A549, 120 h), more than 10000 nM; in experiment [3] (Homo sapiens, NCI-H358, 120 h) it was 4 nM.

Regarding `C=CC(=O)N1CCN2c3nc(=O)n(-c4c(C)ccnc4C(C)C)c4nc(-c5c(O)cccc5F)c(C=C)c(c34)OC[C@H]2C1` [Compound Z74], the IC50 in experiment [1] (Homo sapiens, MIA PaCa-2, 2 h) was 128 nM; in experiment [2] (Homo sapiens, A549, 120 h), more than 10000 nM; in experiment [3] (Homo sapiens, NCI-H358, 120 h), 16 nM.

In the case of `C=CC(=O)N1CCN2c3nc(=O)n(-c4c(C)ccnc4C(C)C)c4nc(-c5ccccc5F)c(Cl)c(c34)OC[C@H]2C1` (single isomer, unassigned) [Compound Z87-1], the IC50 in experiment [1] stood at 158 nM; in experiment [2] (Homo sapiens, A549, 120 h), 10200 nM; in experiment [3] it was 47 nM.

With `C=CC(=O)N1CCN2c3nc(=O)n(-c4nccnc4C(C)C)c4nc(-c5ccccc5F)c(Cl)c(c34)OC[C@H]2C1` (atropisomer, axis not shown) [Compound Z104-2], the results for the IC50 in experiment [1], in experiment [2] and in experiment [3] were 185 nM, more than 10000 nM and 28 nM, respectively.

The IC50 is the concentration that gives 50% inhibition. Higher therefore signals lower potency.
